Data: ChEMBL document CHEMBL5537149, “Design, synthesis, and lead optimization of piperazinyl-pyrimidine analogues as potent small molecules targeting the viral capping machinery of Chikungunya virus” (Eur J Med Chem, 2024)
Converted amounts (≈) assume the structure as drawn.

Experiments:
[1] = tested on: Caco-2; test: Cytotoxicity against human Caco-2 cells incubated for 24 to 72 hrs by MTT assay; type: toxicity, cell-based; conditions: time 24-72 hrs
[2] = tested on: Chikungunya virus; test: Antiviral activity against Chikungunya virus infected in African green monkey Vero cells assessed as reduction in viral induced cell death incubated for 5 days by MTS reagent based absorbance method; type: functional, organism-based; conditions: 120 h
[3] = Cytotoxicity against African green monkey Vero cells assessed as reduction in overall metabolic activity incubated for 5 days by MTS reagent based absorbance method; type: toxicity, cell-based; conditions: chlorocebus sabaeus, time 5 day
[4] = Selectivity index, ratio of CC50 for cytotoxicity against African green monkey Vero cells to EC50 for antiviral activity against Chikungunya virus infected in African green monkey Vero cells assessed as reduction in viral induced cell death; type: toxicity, cell-based; conditions: read-out: Ratio CC50/EC50
[5] = Metabolic stability in human liver microsomes assessed as half-life preincubated for 5 mins followed by NADPH addition and measured upto 60 mins by HPLC-MS/MS analysis; type: ADME, Microsome; conditions: time < 65 min
[6] = Aqueous solubility of compound at pH 7.4 by HPLC analysis; type: physicochemical
[7] = tested on: Caco-2; test: Induction of apoptosis in human Caco-2 cells assessed as increase in caspase-3 expression at 6.25 to 100 uM incubated for 72 hrs by Western blot analysis; type: toxicity, cell-based; conditions: caco-2, 72 h, dose 6.25-100 µM
[8] = tested on: Caco-2; test: Induction of apoptosis in human Caco-2 cells assessed as increase in PARP expression at 6.25 to 100 uM incubated for 72 hrs by Western blot analysis; type: toxicity, cell-based; conditions: caco-2, 72 h, dose 6.25-100 µM
[9] = tested on: Chikungunya virus; test: Antiviral activity against Chikungunya virus 899 infected in African green monkey Vero cells assessed as reduction in viral RNA replication preincubated for 2 hrs with subsequent viral infected followed by media replacement with compound and measured after 48 hrs by qRT-PCR analysis; type: functional, organism-based; conditions: dose 0.25-60 µM, time 50.0 hrs
[10] = tested on: Chikungunya virus; test: Fold resistance , ratio of EC50 for antiviral activity against CHVB-resistant Chikungunya virus infected in African green monkey Vero cells to EC50 for antiviral activity against wildtype Chikungunya virus 899 infected in African green monkey Vero cells; type: functional

| SMILES | Activity [1] | EC50 [2] | CC50 at 120 h [3] | selectivity ratio [4] | half-life [5] | solubility [6] | Activity [7] | Activity [8] | Activity [9] | Ratio EC50 [10] |
| --- | --- | --- | --- | --- | --- | --- | --- | --- | --- | --- |
| CCNc1nc(C)cc(N2CCN(C(=O)c3cccc(Br)c3)CC2)n1 | Non-Toxic | 0.94 µM | > 100 µM | > 107 | > 1 h | > 120 µM | Non-Toxic | Non-Toxic | – | – |
| CCNc1nc(C)cc(N2CCN(C(=O)c3ccc(C)cc3)CC2)n1 | – | 2.4 µM | 203 µM | 84 | > 1 h | > 120 µM | – | – | – | – |
| CCNc1cc(N2CCN(S(=O)(=O)c3ccc(Cl)cc3)CC2)ncn1 | – | 15.9 µM | 44 µM | 2.7 | > 1 h | 95 µM (≈ 36.3 µg/mL) | – | – | – | – |
| CCNc1nc(C)cc(N2CCN(Cc3ccc(F)cc3)CC2)n1 | – | 22 µM | 46 µM | 2.1 | > 1 h | 106 µM (≈ 34.9 µg/mL) | – | – | – | – |
| CCNc1nc(C)cc(N2CCN(C(=O)c3ccc(C(C)(C)C)cc3)CC2)n1 | – | 2.4 µM | 45 µM | 19 | > 1 h | 120 µM (≈ 45.8 µg/mL) | – | – | – | – |
| CCNc1nc(C)cc(N2CCN(C(=O)c3ccc(Cl)c(Cl)c3)CC2)n1 | Non-Toxic | 0.57 µM | 46 µM | 81 | > 1 h | 111 µM (≈ 43.8 µg/mL) | Non-Toxic | Non-Toxic | – | – |
| CCNc1ccnc(N2CCN(C(=O)c3ccc(Cl)cc3)CC2)n1 | – | 15 µM | 47 µM | 3.1 | > 1 h | > 120 µM | – | – | – | – |
| CNc1ccnc(N2CCN(S(=O)(=O)c3ccc(F)cc3)CC2)n1 | – | 9.62 µM | 193 µM | 20 | 0.8 h | > 120 µM | – | – | – | – |
| Cc1cc(N2CCN(S(=O)(=O)c3ccc(Cl)cc3)CC2)nc(NC(C)C)n1 | – | 3.8 µM | 19 µM | 4.9 | 0.9 h | 76 µM (≈ 31.2 µg/mL) | – | – | – | – |
| CCNc1nc(C)cc(N2CCN(C(=O)c3cccc(Cl)c3)CC2)n1 | – | 6.6 µM | 248 µM | 38 | > 1 h | > 120 µM | – | – | – | – |
| CCNc1nc(C)cc(N2CCN(C(=O)c3ccc(I)cc3)CC2)n1 | Non-Toxic | 0.7 µM | 58 µM | 82 | > 1 h | 112 µM (≈ 50.5 µg/mL) | Non-Toxic | Non-Toxic | – | – |
| CCNc1cc(C)nc(NC2CCN(C(=O)c3cc(Cl)cc(Cl)c3)CC2)n1 | – | 12 µM | 25 µM | 2.02 | 0.5 h | 94 µM (≈ 38.4 µg/mL) | – | – | – | – |
| CCNc1nc(C)cc(N2CCN(C(=O)c3cc(Cl)cc(Cl)c3)CC2)n1 | Non-Toxic | 0.47 µM | 80 µM | 173 | > 1 h | 108 µM (≈ 42.6 µg/mL) | Non-Toxic | Non-Toxic | Dose-Dependent Effect | 9.7 |
| CCNc1ccnc(N2CCN(C(=O)c3ccc(F)cc3)CC2)n1 | – | 3.9 µM | 183 µM | 47 | > 1 h | > 120 µM | – | – | – | – |
| CCNc1cc(C)nc(N2CCN(C(=O)c3cccc(Br)c3)CC2)n1 | – | 5.1 µM | > 100 µM | > 20 | 0.158 h | > 120 µM | – | – | – | – |
| CCNc1nc(C)cc(N2CCN(C(=O)c3cccc(C(F)(F)F)c3)CC2)n1 | – | 1.3 µM | 80 µM | 60 | > 1 h | > 120 µM | – | – | – | – |
| CCNc1nc(C)cc(N2CCN(C(=O)c3ccc(Cl)c(C(F)(F)F)c3)CC2)n1 | – | 1.9 µM | > 20 µM | > 11 | > 1 h | 101 µM (≈ 43.2 µg/mL) | – | – | – | – |
| Cc1cc(N2CCN(C(=O)c3ccc(Cl)cc3)CC2)nc(NC(C)C)n1 | – | 18 µM | 46 µM | 2.6 | > 1 h | 115 µM (≈ 43 µg/mL) | – | – | – | – |
| CNc1nc(C)cc(N2CCN(S(=O)(=O)c3ccc(F)cc3)CC2)n1 | – | 11 µM | 99 µM | 9.2 | > 1 h | > 120 µM | – | – | – | – |
| CCNc1cc(C)nc(N2CCN(C(=O)c3cccc([N+](=O)[O-])c3)CC2)n1 | – | 4.2 µM | > 100 µM | > 24 | 0.95 h | 119 µM (≈ 44.1 µg/mL) | – | – | – | – |
| Cc1cc(N2CCN(C(=O)c3ccc(Br)cc3)CC2)nc(N(C)C)n1 | – | 6.6 µM | > 100 µM | > 15 | > 1 h | > 120 µM | – | – | – | – |
| CCNc1cc(C)nc(N2CCN(C(=O)c3ccc(Cl)cc3)CC2)n1 | – | 2.4 µM | 89 µM | 37 | > 1 h | > 120 µM | – | – | – | – |
| CCNc1cc(C)nc(N2CCN(C(=O)c3ccc(Br)cc3)CC2)n1 | – | 9.58 µM | > 100 µM | > 10 | > 1 h | 116 µM (≈ 46.9 µg/mL) | – | – | – | – |
| CCNc1nc(C)cc(N2CCN(C(=O)c3ccc(OC)cc3)CC2)n1 | Non-Toxic | 1.4 µM | 136 µM | 97 | > 1 h | > 120 µM | Non-Toxic | Non-Toxic | – | – |
| CCNc1nc(C)cc(N2CCN(C(=O)c3ccc(Cl)c([N+](=O)[O-])c3)CC2)n1 | – | 0.98 µM | > 20 µM | > 20 | > 1 h | > 120 µM | – | – | – | – |
| CCNc1nc(C)cc(N2CCN(C(=O)c3cccc(I)c3)CC2)n1 | – | 1 µM | > 100 µM | > 98 | 0.7 h | > 120 µM | – | – | – | – |
| CCNc1nc(C)cc(N2CCN(S(=O)(=O)c3ccc(Cl)cc3)CC2)n1 | – | 2.76 µM | 11 µM | 3.9 | 0.817 h | 104 µM (≈ 41.2 µg/mL) | – | – | – | – |
| CCNc1nc(C)cc(N2CCN(C(=O)c3ccc([N+](=O)[O-])cc3Cl)CC2)n1 | Non-Toxic | > 0.78 µM | > 100 µM | – | > 1 h | 111 µM (≈ 44.9 µg/mL) | Non-Toxic | Non-Toxic | Dose-Dependent Effect | 15.1 |
| CCNc1cc(C)nc(N2CCN(S(=O)(=O)c3ccc4ccccc4c3)CC2)n1 | – | 10 µM | 17 µM | 1.7 | 0.333 h | 90 µM (≈ 37 µg/mL) | – | – | – | – |
| CCNc1nc(C)cc(N2CCN(C(=O)c3ccccc3)CC2)n1 | – | 2.05 µM | > 308 µM | > 150 | > 1 h | > 120 µM | – | – | – | – |
